Source: patent publication US10548871B2, “Low-dose doxepin formulations and methods of making and using the same” (Pernix Sleep, Inc., priority 2007, dated 2020)
Counter-ions that a name gives are not always drawn.

How the values were obtained:
[1] = Biopharmaceutic Classification System; cited from earlier work
[2] = Pharmacokinetic performance of low dose doxepin capsules and tablets in healthy adult volunteers, crossover design; format: in vivo, human; conditions: majority of subjects
Procedure: The pharmacokinetic performance of oral, low dose doxepin formulations is well suited to the treatment of insomnia. The pharmacokinetic performance of capsules containing 1, 3 or 6 mg doxepin, as well as tablets containing 6 mg doxepin, was evaluated in healthy adult volunteers under a crossover design.
Of further interest to the pharmacokinetic performance of these doxepin formulations was the time necessary to reach certain plasma concentrations. Reaching particular concentrations in plasma can play a role in establishing therapeutic benefit. In particular, doxepin concentrations in plasma reach 0.05 ng/mL in the majority of subjects for all doses within 90 minutes after dosing. […] Such pharmacokinetic performance is beneficial in the treatment of insomnia, as reaching measurable plasma concentrations in a timely manner can be preferred for facilitating the onset of sleep.

adult insomnia patients = experiment: Polysomnographic endpoints in adult insomnia patients treated with 3 mg doxepin

| Compound | solubility [1] | time after dosing to reach plasma concentration of 0.1 ng/mL ([2]; 3 and 6 mg doses) [min] | time after dosing for doxepin plasma concentration to reach 0.05 ng/mL ([2]; all doses) [min] | maintenance of sleep (adult insomnia patients) | residual sedation (adult insomnia patients) | sleep onset, on average, after bedtime (adult insomnia patients; polysomnographic endpoint) [min] |
| --- | --- | --- | --- | --- | --- | --- |
| CN(C)CCC=C1c2ccccc2COc2ccccc21 [doxepin HCl, Doxepin HCl] | high solubility | – | – | – | – | – |
| CN(C)CCC=C1c2ccccc2COc2ccccc21 [doxepin] | – | ≤ 60 | ≤ 90 | persisted throughout the entire night (8 hours) | not followed by residual sedation | 27 |
